Measurements taken from patent US12692261B2, “Substituted heterocyclic compounds and therapeutic uses thereof” (Bayer Aktiengesellschaft, priority 2020, dated 2026).

Legend:
[1] = molecular target: T1, full-length human CSNK1A1 (Homo sapiens, UniProt P48729); assay: CSNK1A1 Assay 2 (ADP-Glo, 1 μM ATP, substrate biotin-Ahx-KRRRAL-pS-VASLPGL); format: biochemical; conditions: Table 3, read-out: CSNK1A1 Assay 2 IC50 [mol/l] (median)
T1 construct: N-terminal Glutathion-S-Transferase (GST) and full-length human CSNK1A1; purchased Life Technologies PV4174; host or cells: baculovirus infected insect cells
Procedure, shortened: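 Activity read as ADP generated (ADP-Glo luciferase luminescence, 1 h detection steps at 22 °C). Enzyme was insect-cell-expressed GST–full-length human CSNK1A1, compound-preincubated 15 min before reaction with phosphopeptide substrate and 1 μM ATP in 50 mM HEPES pH 7.5, 10 mM MgCl2.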

[2] = molecular target: T1, full-length human CSNK1A1; assay: CSNK1A1 High ATP Assay (ADP-Glo, 1 mM ATP); format: biochemical; conditions: Table 3, read-out: CSNK1A1 high ATP assay IC50 [mol/l] (median);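 further: 30 min kinase reaction at 22 °C with 100 µM peptide substrate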
Procedure, shortened: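 Kinase activity taken as ADP generated, quantified by ADP-Glo luminescence after 1 h ATP depletion and 1 h detection at 22 °C. Enzyme is GST–full-length human CSNK1A1 (insect cell-expressed), pre-bound to compound for 15 min, with phosphopeptide substrate and 1 mM ATP.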

T1 sequence (P48729 whole entry): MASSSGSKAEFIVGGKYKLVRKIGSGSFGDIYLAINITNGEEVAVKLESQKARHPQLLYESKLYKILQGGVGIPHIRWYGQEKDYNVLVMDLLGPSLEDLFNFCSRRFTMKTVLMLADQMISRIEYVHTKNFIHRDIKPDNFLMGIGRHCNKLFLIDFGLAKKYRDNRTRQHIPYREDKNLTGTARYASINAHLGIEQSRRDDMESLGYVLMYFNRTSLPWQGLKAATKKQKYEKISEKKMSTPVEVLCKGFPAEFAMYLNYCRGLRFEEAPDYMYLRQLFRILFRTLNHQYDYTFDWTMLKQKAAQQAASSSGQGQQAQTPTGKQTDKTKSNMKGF

SMILES | IC50 [1] | IC50 [2]
O=C(Nc1cc(-c2[nH]c3c(O[C@H]4CCOC4)cc(F)nc3c2-c2ccccn2)ccn1)C(CC(F)F)c1ccc(F)cc1 (mixture of isomers) [Example 53, (2RS)-4,4-difluoro-N-{4-[5-fluoro-7-{[(3S)-oxolan-3-yl]oxy}-3-(pyridin-2-yl)-1H-pyrrolo[3,2-b]pyridin-2-yl]pyridin-2-yl}-2-(4-fluorophenyl)butanamide] | 6 nM | 6 nM
O=C(Nc1cc(-c2[nH]c3c(OC[C@@H]4COCCO4)cc(F)nc3c2-c2ccccn2)ccn1)C(CC(F)F)c1ccc(F)cc1 (mixture of isomers) [Example 57, (2RS)—N-(4-{7-[(2S)-1,4-dioxan-2-ylmethoxy]-5-fluoro-3-(pyridin-2-yl)-1H-pyrrolo[3,2-b]pyridin-2-yl}pyridin-2-yl)-4,4-difluoro-2-(4-fluorophenyl)butanamide] | 7.89 nM | 7.89 nM
O=C(Nc1cc(-c2[nH]c3c(O[C@H]4CCOC4)ncnc3c2-c2ccccn2)ccn1)C(CC(F)F)c1ccc(F)cc1 (mixture of isomers) [Example 72, (2RS)-4,4-difluoro-2-(4-fluorophenyl)-N-{4-[4-{[(3S)-oxolan-3-yl]oxy}-7-(pyridin-2-yl)-5H-pyrrolo[3,2-d]pyrimidin-6-yl]pyridin-2-yl}butanamide] | 7.1 nM | 7.1 nM
O=C(Nc1cc(-c2[nH]c3ccc(F)nc3c2-c2ccccn2)ccn1)C(CC(F)F)c1ccc(F)cc1 (racemic) [Example 1, 4,4-difluoro-2-(4-fluorophenyl)-N-{4-[5-fluoro-3-(pyridin-2-yl)-1H-pyrrolo[3,2-b]pyridin-2-yl]pyridin-2-yl}butanamide] | 10.1 nM | 61.3 nM
CN1CCN(c2cc(F)nc3c(-c4ccccn4)c(-c4ccnc(NC(=O)C(CC(F)F)c5ccc(F)cc5)c4)[nH]c23)CC1 (racemic) [Example 56, (2RS)-4,4-difluoro-N-{4-[5-fluoro-7-(4-methylpiperazin-1-yl)-3-(pyridin-2-yl)-1H-pyrrolo[3,2-b]pyridin-2-yl]pyridin-2-yl}-2-(4-fluorophenyl)butanamide] | 3.19 nM | 3.19 nM
O=C(Nc1cc(-c2[nH]c3nc(F)cnc3c2-c2ccccn2)ccn1)C(CC(F)F)c1ccc(F)cc1 (racemic) [Example 60, (2RS)-4,4-difluoro-2-(4-fluorophenyl)-N-{4-[3-fluoro-7-(pyridin-2-yl)-5H-pyrrolo[2,3-b]pyrazin-6-yl]pyridin-2-yl}butanamide] | 5.81 nM | 5.81 nM
O=C(Nc1cc(-c2[nH]c3c(OCC4CCCO4)cc(F)nc3c2-c2ccccn2)ccn1)C(CC(F)F)c1ccc(F)cc1 (racemic) [Example 61, (2RS)-4,4-difluoro-N-{4-[5-fluoro-7-{[(2RS)-oxolan-2-yl]methoxy}-3-(pyridin-2-yl)-1H-pyrrolo[3,2-b]pyridin-2-yl]pyridin-2-yl}-2-(4-fluorophenyl)butanamide] | 11.1 nM | 11.1 nM
O=C(Nc1cc(-c2[nH]c3ncc(F)nc3c2-c2ccccn2)ccn1)C(CC(F)F)c1ccc(F)cc1 (racemic) [Example 62, (2RS)-4,4-difluoro-2-(4-fluorophenyl)-N-{4-[2-fluoro-7-(pyridin-2-yl)-5H-pyrrolo[2,3-b]pyrazin-6-yl]pyridin-2-yl}butanamide] | 3.92 nM | 3.92 nM
O=C(Nc1cc(-c2[nH]c3ccnnc3c2-c2ccccn2)ccn1)C(CC(F)F)c1ccc(F)cc1 (racemic) [Example 65, (2RS)-4,4-difluoro-2-(4-fluorophenyl)-N-{4-[7-(pyridin-2-yl)-5H-pyrrolo[3,2-c]pyridazin-6-yl]pyridin-2-yl}butanamide] | 2.75 nM | 2.75 nM
O=C(Nc1cc(-c2[nH]c3cc(Cl)nnc3c2-c2ccccn2)ccn1)C(CC(F)F)c1ccc(F)cc1 (racemic) [Example 68, (2RS)—N-{4-[3-chloro-7-(pyridin-2-yl)-5H-pyrrolo[3,2-c]pyridazin-6-yl]pyridin-2-yl}-4,4-difluoro-2-(4-fluorophenyl)butanamide] | 6.93 nM | 6.93 nM
O=C(Nc1cc(-c2[nH]c3c(N4CCOCC4)cc(F)nc3c2-c2ccccn2)ccn1)C(CC(F)F)c1ccc(F)cc1 (racemic) [Example 69, (2RS)-4,4-difluoro-N-{4-[5-fluoro-7-(morpholin-4-yl)-3-(pyridin-2-yl)-1H-pyrrolo[3,2-b]pyridin-2-yl]pyridin-2-yl}-2-(4-fluorophenyl)butanamide] | 10.4 nM | 10.4 nM
O=C(Nc1cc(-c2[nH]c3ccc(Cl)nc3c2-c2ccccn2)ccn1)C(CC(F)F)c1ccc(F)cc1 (racemic) [Example 70, (2RS)—N-{4-[5-chloro-3-(pyridin-2-yl)-1H-pyrrolo[3,2-b]pyridin-2-yl]pyridin-2-yl}-4,4-difluoro-2-(4-fluorophenyl)butanamide] | 5.43 nM | 5.43 nM
O=C(Nc1cc(-c2[nH]c3cc(F)cnc3c2-c2ccccn2)ccn1)C(CO)c1ccc(F)cc1 (racemic) [Example 71, (2RS)—N-(4-(6-fluoro-3-(pyridin-2-yl)-1H-pyrrolo[3,2-b]pyridin-2-yl)pyridin-2-yl)-2-(4-fluorophenyl)-3-hydroxypropanamide] | 8.21 nM | 8.21 nM
O=C(Nc1cc(-c2[nH]c3c(OCC(F)F)ncnc3c2-c2ccccn2)ccn1)C(CC(F)F)c1ccc(F)cc1 (racemic) [Example 78, (2RS)—N-{4-[4-(2,2-difluoroethoxy)-7-(pyridin-2-yl)-5H-pyrrolo[3,2-d]pyrimidin-6-yl]pyridin-2-yl}-4,4-difluoro-2-(4-fluorophenyl)butanamide] | 5.16 nM | 5.16 nM
O=C(Nc1cc(-c2[nH]c3c(N4CCNCC4)ccnc3c2-c2ccccn2)ccn1)C(CC(F)F)c1ccc(F)cc1 (racemic) [Example 92, (2RS)-4,4-difluoro-2-(4-fluorophenyl)-N-{4-[7-(piperazin-1-yl)-3-(pyridin-2-yl)-1H-pyrrolo[3,2-b]pyridin-2-yl]pyridin-2-yl}butanamide] | 2.35 nM | 2.35 nM
O=C(Nc1cc(-c2[nH]c3ccc(F)nc3c2-c2ccccn2)ccn1)[C@@H](CC(F)F)c1ccc(F)cc1 (single isomer, unassigned) [Example 2] | 1.36 nM | 5 nM
O=C(Nc1cc(-c2[nH]c3c(OC[C@H]4COCCO4)cc(F)nc3c2-c2ccccn2)ccn1)C(CC(F)F)c1ccc(F)cc1 (single isomer, unassigned) [Example 51, (2R or S)—N-{4-[7-{[(2R)-1,4-dioxan-2-yl]methoxy}-5-fluoro-3-(pyridin-2-yl)-1H-pyrrolo[3,2-b]pyridin-2-yl]pyridin-2-yl}-4,4-difluoro-2-(4-fluorophenyl)butanamide] | 4.65 nM | 4.65 nM
O=C(Nc1cc(-c2[nH]c3c(OC[C@H]4COCCO4)cc(F)nc3c2-c2ccccn2)ccn1)C(CC(F)F)c1ccc(F)cc1 (single isomer, unassigned) [Example 52, (2R or S)—N-{4-[7-{[(2R)-1,4-dioxan-2-yl]methoxy}-5-fluoro-3-(pyridin-2-yl)-1H-pyrrolo[3,2-b]pyridin-2-yl]pyridin-2-yl}-4,4-difluoro-2-(4-fluorophenyl)butanamide] | 17.2 nM | 17.2 nM
